From patent publication US20250197374A1, “WEE1 DEGRADING COMPOUNDS AND USES THEREOF” (BRISTOL-MYERS SQUIBB COMPANY, priority 2023, published 2025) come the findings set out here.

Common to all, as to assay type: cell-based
The target in assay [1] is T1, WEE1 (Homo sapiens, UniProt P30291+Q96SW2).
T1 construct: C-terminal ePL-tagged (DiscoverX, Fremont, CA) full-length WEE1 expression construct; expressed in transfected cells; host or cells: LentiX-HEK293T (Invitrogen), lentivirally transduced; the cells also over-express GSPT1-GN
T1 sequence (P30291 whole entry): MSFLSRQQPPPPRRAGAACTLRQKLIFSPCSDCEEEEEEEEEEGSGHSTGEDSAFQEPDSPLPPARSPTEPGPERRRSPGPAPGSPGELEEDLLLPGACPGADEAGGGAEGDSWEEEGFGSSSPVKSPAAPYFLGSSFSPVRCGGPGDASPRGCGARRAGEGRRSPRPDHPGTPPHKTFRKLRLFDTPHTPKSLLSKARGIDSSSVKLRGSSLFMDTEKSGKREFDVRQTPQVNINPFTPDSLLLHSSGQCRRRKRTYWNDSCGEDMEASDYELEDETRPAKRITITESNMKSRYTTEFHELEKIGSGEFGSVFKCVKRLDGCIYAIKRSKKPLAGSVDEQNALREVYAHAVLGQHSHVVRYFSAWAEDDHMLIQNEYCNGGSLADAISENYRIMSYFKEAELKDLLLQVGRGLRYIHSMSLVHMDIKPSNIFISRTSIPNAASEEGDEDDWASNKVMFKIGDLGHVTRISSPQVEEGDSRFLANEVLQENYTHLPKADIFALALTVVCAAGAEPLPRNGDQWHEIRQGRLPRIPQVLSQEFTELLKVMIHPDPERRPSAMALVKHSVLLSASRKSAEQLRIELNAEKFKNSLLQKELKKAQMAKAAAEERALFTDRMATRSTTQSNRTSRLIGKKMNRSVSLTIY
T1 sequence (Q96SW2 whole entry): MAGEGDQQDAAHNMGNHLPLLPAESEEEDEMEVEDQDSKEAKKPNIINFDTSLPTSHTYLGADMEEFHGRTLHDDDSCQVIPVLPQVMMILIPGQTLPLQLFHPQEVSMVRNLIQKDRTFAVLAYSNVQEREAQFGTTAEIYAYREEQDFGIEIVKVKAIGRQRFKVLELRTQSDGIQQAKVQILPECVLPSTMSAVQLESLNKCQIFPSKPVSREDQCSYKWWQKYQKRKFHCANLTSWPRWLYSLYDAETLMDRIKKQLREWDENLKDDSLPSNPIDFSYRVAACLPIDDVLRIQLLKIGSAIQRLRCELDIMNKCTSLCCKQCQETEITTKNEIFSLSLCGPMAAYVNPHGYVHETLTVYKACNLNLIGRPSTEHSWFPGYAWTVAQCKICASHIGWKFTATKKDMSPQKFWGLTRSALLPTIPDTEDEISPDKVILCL
T1 sequence (Q16531 whole entry partner): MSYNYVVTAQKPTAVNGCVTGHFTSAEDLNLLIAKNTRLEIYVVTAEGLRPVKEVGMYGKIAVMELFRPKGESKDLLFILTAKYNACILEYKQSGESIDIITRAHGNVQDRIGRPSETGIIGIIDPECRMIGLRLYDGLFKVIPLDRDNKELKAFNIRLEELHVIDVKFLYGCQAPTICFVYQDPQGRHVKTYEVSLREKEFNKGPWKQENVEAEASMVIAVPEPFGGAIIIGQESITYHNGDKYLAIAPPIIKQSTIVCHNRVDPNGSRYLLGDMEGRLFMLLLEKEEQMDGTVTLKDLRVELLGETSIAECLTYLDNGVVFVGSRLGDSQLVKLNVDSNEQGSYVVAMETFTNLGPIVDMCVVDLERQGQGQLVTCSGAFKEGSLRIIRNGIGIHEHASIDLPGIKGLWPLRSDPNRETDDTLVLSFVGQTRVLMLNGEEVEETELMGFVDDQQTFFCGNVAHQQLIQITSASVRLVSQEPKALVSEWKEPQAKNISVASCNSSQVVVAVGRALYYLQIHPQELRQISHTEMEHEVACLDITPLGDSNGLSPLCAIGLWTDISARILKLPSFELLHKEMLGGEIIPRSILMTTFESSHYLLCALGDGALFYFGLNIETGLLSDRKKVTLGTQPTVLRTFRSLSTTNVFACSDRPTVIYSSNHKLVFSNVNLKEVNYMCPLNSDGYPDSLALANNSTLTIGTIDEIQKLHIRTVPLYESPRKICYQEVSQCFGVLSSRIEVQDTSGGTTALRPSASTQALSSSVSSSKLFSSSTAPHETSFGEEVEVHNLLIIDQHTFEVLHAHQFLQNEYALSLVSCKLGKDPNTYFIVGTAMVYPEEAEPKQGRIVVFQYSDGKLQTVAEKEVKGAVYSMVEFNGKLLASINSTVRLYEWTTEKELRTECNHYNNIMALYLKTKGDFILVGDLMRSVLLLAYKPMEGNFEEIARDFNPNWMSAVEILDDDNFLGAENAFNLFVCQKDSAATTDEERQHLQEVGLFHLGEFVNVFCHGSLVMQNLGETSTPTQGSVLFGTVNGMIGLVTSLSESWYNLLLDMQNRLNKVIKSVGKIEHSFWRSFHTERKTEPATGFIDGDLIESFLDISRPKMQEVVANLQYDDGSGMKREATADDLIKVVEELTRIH
As to the kind of experiment: WEE1-ePL degradation assay (293T-LentiX, InCELL Hunter luminescence, 4 hr). Particulars: for DC50: LentiX-HEK293T cells expressing WEE1-ePL, 4 hr incubation, read-out: 293T-LentiX WEE1-ePL Degradation 4 hr EC50; for 293T-LentiX WEE1-ePL Degradation 4 hr YMin (%): lower limit of fit, % of DMSO control signal remaining. An excerpt: To generate LentiX-WEE1-ePL-GSPT1-ND cells for the WEE1 degradation assay, LentiX-HEK293T (Invitrogen) were tranduced by lentivirus with a C-terminal ePL-tagged (DiscoverX, Fremont, CA) full-length WEE1 expression construct. A separate lentiviral construct was introduced to over-express a mutated form of GSPT1 (NP_002085), termed GSPT1-GN, which contains a G575N mutation and is further truncated in the first 158 amino acids. GSPT1-GN is functional but not degradable by Cereblon. Cells were selected and maintained in complete DMEM media (DMEM, 10% Heat Inactivated FBS, 400 μg/mL Geneticin, and 1 μg/mL puromycin at 37 C and 5% CO2). Cells were passaged every 3-4 days by reseeding 1×10^6 cells in a T150 flask.
Cells were dispensed into 384-well white plates (Corning #3570, NY) that were pre-spotted with compounds using an acoustic dispenser (Echo acoustic transfer system, Beckman Coulter Life Sciences, Carlsbad, CA) as a 10-point dose-response curve with a 3-fold dilution starting at either 1 uM or 10 uM and including a DMSO control. Twenty-five microliters of media containing 2500 cells for LentiX-oeWEE1-ePL was dispensed per well. Assay plates were incubated at 37° C. with 5% CO2 for four hours (WEE1) After incubation, 25 μL of the InCELL Hunter™ Detection Reagent Working Solution (DiscoverX, Fremont, CA) was added to each well and incubated at room temperature for 30 minutes protected from light. After 30 minutes, luminescence was read on a PHERAstar luminometer (Cary, NC).
To determine the half-maximal effective concentration (EC50) values for WEE1-ePL degradation, a four parameter logistic model was used: (Sigmoidal Dose-Response Model) (FIT=(A+((B−A)/1+((C/x)^D)))) where C is the inflection point (EC50), D is the Hill slope, and A and B are the low and high limits of the fit respectively). The lower limit of the fit (value A) is referred to as Ymin. […] The maximum limit constraint, Ymax, is similarly derived using DMSO control. The curves were processed and evaluated using Activity Base (IDBS, Alameda, CA) or using Dotmatics (Boston, MA).

The test system of assay [2] is MKN45 cells. As to the kind of experiment: MKN45 cell proliferation assay (Cell-Titer-Glo, 120 hr). Conditions: for EC50: Homo sapiens, MKN-45, 120 h, read-out: MKN45 Cell Prolif. 120 hr EC50; for MKN45 Cell Prolif. 120 hr YMin (%): minimal percent of DMSO control observed. An excerpt:
(§1) MKN45 cells were obtained from Celgene internal cell banks and cultured in RPMI complete media (RPMI-1640, 1× Penicillin/Streptomycin, 1× glutamine, 1× Sodium Pyruvate, Non-essential Amino Acids, 10% Fetal Bovine serum, all component from Thermo-Fisher). MDA-MB-231 cells were obtained from the ATCC (HTB-26) and cultured in RPMI-1640 and 10% Fetal Bovine serum; MDA-MB-231 cells were expanded and stored as aliquots in liquid nitrogen in Celgene internal cell banks. Compounds were dispensed into 384-well plates using an HP DE300 compound printer in triplicate with 8 compounds on each plate. Compounds were dispensed into 384-well black clear bottom plates (Corning #3764BC) using an EDC acoustic dispenser at BMS. For each compound, a 10-point dose response was printed at half-log dilutions starting at either 1 uM or 10 uM in triplicate for MKN45 cells and in duplicate for MDA-MB-231 cells. The DMSO concentration was kept constant for a final assay concentration of 0.1% per well assuming 50 ul final media volume. Compound plates were sealed and frozen at −20 C until use.
(§2) For each assay batch, compound plates were thawed and allowed to reach room temperature, and cells were seeded at 400 MKN45 cells per well, or 800 MDA-MB-231 cells per well, in 50 ul media listed above for each cell line. After 120 hours of incubation at 37 C and 5% CO2, cells were lysed by addition of 25 μL of Cell-Titer-Glo Reagent (Promega Corporation, Madison, WI), as per manufacturer's instructions, protected from light, shaken for 45 minutes, and total luminescence read by a Perkin Elmer Envision plate reader. Total luminescence signal is linearly correlated with cell number remaining in the well.
(§3) Luminescence data was processed per plate by subtracting reagent-only “blank” well luminescence from all measured values and calculating a percent of DMSO control value for each treatment well. Then, to determine the half-maximal effective concentration (EC50) values for cell growth inhibition, a four parameter logistic model was fit to the data for each DMSO-normalized compound: Sigmoidal Dose-Response Model: (FIT=(A+((B−A)/1+((C/x)^D)))) where C is the inflection point ([…]), D is the Hill slope, and A and B are the low and high limits of the fit respectively. The lower limit of the fit (value A) is referred to as Ymin-calculated. The minimal percent of DMSO control that is observed in the concentrations tested for each compound is labeled as “Ymin-obs”, and was recorded and reported in the tables. Sigmoidal fit curves were processed and evaluated using Activity Base (IDBS, Alameda, CA) or using Dotmatics (Boston, MA). N/A=not available at the present time.

The test system of assay [3] is MDA-MB-231 cells. As to the kind of experiment: MDA-MB-231 cell proliferation assay (Cell-Titer-Glo, 120 hr). Conditions: for EC50: Homo sapiens, MDA-MB-231, 120 h, read-out: MDA-MB 231 Cell Prolif. 120 hr EC50; for MDA-MB 231 Cell Prolif. 120 hr YMin (%): minimal percent of DMSO control observed.
Description: as §1, §2, §3

By EC50 is commonly meant the concentration giving half of the maximal effect. `CN1CC[C@]2(C[C@@H](c3ccc4cc(CN5CC[C@H](Oc6ccc7c(c6)CN([C@H]6CCC(=O)NC6=O)C7=O)C5)ccc4n3)CO2)C1` (single isomer, unassigned) [Example 4]: in assay [1], the DC50 was 14 nM and the “293T-LentiX WEE1-ePL Degradation 4 hr YMin (%)” value was 30.9%. Moreover, in assay [2], the EC50 came to 23 nM and the “MKN45 Cell Prolif. 120 hr YMin (%)” value is given as 12.6%. Further, in assay [3], the EC50 came to 146 nM and the “MDA-MB 231 Cell Prolif. 120 hr YMin (%)” value amounted to 61.3%.
Regarding `COC[C@@H]1CN(Cc2cc(F)c3ncc(N4CCOCC4)cc3c2)C[C@H]1Oc1ccc2c(c1)CN([C@H]1CCC(=O)NC1=O)C2=O` [Example 30, (S)-3-(5-(((3S,4S)-1-((8-fluoro-3-morpholinoquinolin-6-yl)methyl)-4-(methoxymethyl)pyrrolidin-3-yl)oxy)-1-oxoisoindolin-2-yl)piperidine-2,6-dione], in assay [1], the DC50 was 1 nM and the “293T-LentiX WEE1-ePL Degradation 4 hr YMin (%)” value is recorded as 27.9%. Besides, in assay [2], the EC50 stood at 1 nM and the “MKN45 Cell Prolif. 120 hr YMin (%)” value was found to be 7.8%. In assay [3], the EC50 was found to be 14 nM and the “MDA-MB 231 Cell Prolif. 120 hr YMin (%)” value is recorded as 12.7%.
Take `COC[C@@H]1CN(Cc2cc(F)c3nc(C4CCN(C5COC5)CC4)ccc3c2)C[C@H]1Oc1ccc2c(c1)CN([C@H]1CCC(=O)NC1=O)C2=O` [Example 143, (3S)-3-(5-{[(3S,4S)-1-({8-fluoro-2-[1-(oxetan-3-yl)piperidin-4-yl]quinolin-6-yl}methyl)-4-(methoxymethyl)pyrrolidin-3-yl]oxy}-1-oxo-2,3-dihydro-1H-isoindol-2-yl)piperidine-2,6-dione]: in assay [1], the DC50 was 1 nM and the “293T-LentiX WEE1-ePL Degradation 4 hr YMin (%)” value is recorded as 27.3%. In addition, in assay [2], the EC50 is 1 nM and the “MKN45 Cell Prolif. 120 hr YMin (%)” value was 8.9%. Also, in assay [3], the EC50 was determined as 27 nM and the “MDA-MB 231 Cell Prolif. 120 hr YMin (%)” value is listed as 35.5%.
Turning to `COC[C@@H]1CN(Cc2cc(F)c3nc(C4CCC(C(C)(C)O)CC4)ccc3c2)C[C@H]1Oc1ccc2c(c1)CN([C@H]1CCC(=O)NC1=O)C2=O` (relative stereo) [Example 57, rel-(S)-3-(5-(((3S,4S)-1-((8-fluoro-2-(4-(2-hydroxypropan-2-yl)cyclohexyl)quinolin-6-yl)methyl)-4-(methoxymethyl)pyrrolidin-3-yl)oxy)-1-oxoisoindolin-2-yl)piperidine-2,6-dione], the “293T-LentiX WEE1-ePL Degradation 4 hr YMin (%)” value in assay [1] stood at 30.3%. The “MKN45 Cell Prolif. 120 hr YMin (%)” value in assay [2] turned out to be 8.0%. Besides, in assay [3], the EC50 was found to be 11 nM and the “MDA-MB 231 Cell Prolif. 120 hr YMin (%)” value came out at 13.2%.
`CN1CC[C@]2(C[C@H](c3ccc4cc(CN5CC[C@H](Oc6ccc7c(c6)CN([C@H]6CCC(=O)NC6=O)C7=O)C5)ccc4n3)CO2)C1` (relative stereo) [Example 3, rel-(3S)-3-(5-(((3S)-1-((2-(7-methyl-1-oxa-7-azaspiro[4.4]nonan-3-yl)quinolin-6-yl)methyl)pyrrolidin-3-yl)oxy)-1-oxoisoindolin-2-yl)piperidine-2,6-dione]: in assay [1], the DC50 was 10 nM and the “293T-LentiX WEE1-ePL Degradation 4 hr YMin (%)” value stood at 28.1%. In assay [2], the EC50 was 19 nM and the “MKN45 Cell Prolif. 120 hr YMin (%)” value worked out at 13.0%. In assay [3], the EC50 worked out at 129 nM and the “MDA-MB 231 Cell Prolif. 120 hr YMin (%)” value amounted to 61.3%.
For the molecule `COC[C@@H]1CN(Cc2cc(F)c3nc(N4CCOC5(CC5)C4)ncc3c2)C[C@H]1Oc1ccc2c(c1)CN([C@H]1CCC(=O)NC1=O)C2=O` [Example 79, (3S)-3-(5-{[(3S,4S)-1-[(8-fluoro-2-{4-oxa-7-azaspiro[2.5]octan-7-yl}quinazolin-6-yl)methyl]-4-(methoxymethyl)pyrrolidin-3-yl]oxy}-1-oxo-2,3-dihydro-1H-isoindol-2-yl)piperidine-2,6-dione], in assay [1], the DC50 was 1 nM and the “293T-LentiX WEE1-ePL Degradation 4 hr YMin (%)” value is 28.7%. Further, in assay [2], the EC50 stood at 1 nM and the “MKN45 Cell Prolif. 120 hr YMin (%)” value is recorded as 9.9%. In addition, in assay [3], the EC50 was 31 nM and the “MDA-MB 231 Cell Prolif. 120 hr YMin (%)” value worked out at 17.9%.
For `COC[C@@H]1CN(Cc2cc3ccc(C(C)(C)O)cc3cn2)C[C@H]1Oc1ccc2c(c1)CN([C@H]1CCC(=O)NC1=O)C2=O` [Example 40, (3S)-3-(5-{[(3S,4S)-1-{[7-(2-hydroxypropan-2-yl)isoquinolin-3-yl]methyl}-4-(methoxymethyl)pyrrolidin-3-yl]oxy}-1-oxo-2,3-dihydro-1H-isoindol-2-yl)piperidine-2,6-dione], in assay [1], the DC50 turned out to be 3 nM and the “293T-LentiX WEE1-ePL Degradation 4 hr YMin (%)” value stood at 30.9%. In assay [2], the EC50 is 5 nM and the “MKN45 Cell Prolif. 120 hr YMin (%)” value came out at 10.2%. Further, in assay [3], the EC50 turned out to be 228 nM and the “MDA-MB 231 Cell Prolif. 120 hr YMin (%)” value stood at 1.8%.
As for `O=C1CC[C@H](N2Cc3cc(O[C@H]4CCN(Cc5cc(F)c6nc(N7C[C@@H]8CCO[C@@H]8C7)ncc6c5)C4)ccc3C2=O)C(=O)N1` (single isomer, unassigned) [Example 19, (S)-3-(5-(((S)-1-((8-fluoro-2-((3aS*,6aS*)-hexahydro-5H-furo[2,3-c]pyrrol-5-yl)quinazolin-6-yl)methyl)pyrrolidin-3-yl)oxy)-1-oxoisoindolin-2-yl)piperidine-2,6-dione], in assay [1], the DC50 came out at 6 nM and the “293T-LentiX WEE1-ePL Degradation 4 hr YMin (%)” value was 31.4%. In addition, in assay [2], the EC50 was found to be 12 nM and the “MKN45 Cell Prolif. 120 hr YMin (%)” value is on record as 10.1%. Besides, in assay [3], the EC50 was determined as 104 nM and the “MDA-MB 231 Cell Prolif. 120 hr YMin (%)” value was 58.4%.
Consider `O=C1CC[C@H](N2Cc3cc(O[C@H]4CCN(Cc5ccc6nc([C@H]7CCO[C@@]8(CCOC8)C7)ccc6c5)C4)ccc3C2=O)C(=O)N1` (relative stereo) [Example 22, rel-(3S)-3-(5-(((3S)-1-((2-(2,6-dioxaspiro[4.5]decan-9-yl)quinolin-6-yl)methyl)pyrrolidin-3-yl)oxy)-1-oxoisoindolin-2-yl)piperidine-2,6-dione], for which, in assay [1], the DC50 came to 1 nM and the “293T-LentiX WEE1-ePL Degradation 4 hr YMin (%)” value worked out at 31.3%. For the same molecule, in assay [2], the EC50 came to 2 nM and the “MKN45 Cell Prolif. 120 hr YMin (%)” value is reported as 10.8%. Also, in assay [3], the EC50 is 39 nM and the “MDA-MB 231 Cell Prolif. 120 hr YMin (%)” value was 42.5%.
